Test [1] in a line: Inhibition of porcine heart SQR in SCR complex assessed as reduction in ubiquinol-cytochrome c reductase (complex 3) activity by measuring cytochrome c level using succinate and DCIP substrate by spectrophotometry. The arrangement: species or system Sus scrofa.
Test [2] can be described thus: Inhibition of porcine heart SCR using succinate and cytochrome c substrate at 23 degC by spectrophotometry. On the set-up: species or system Sus scrofa.
Test [3] can be described thus: Non-competitive inhibition of porcine heart SCR with respect to cytochrome c substrate at 23 degC by double-reciprocal plot. On the set-up: species or system Sus scrofa.
In test [4] the target is T1, Succinate-ubiquinone oxidoreductase (Sus scrofa, UniProt A5GZW8+D0VWV4).
T1 sequence (A5GZW8 whole entry): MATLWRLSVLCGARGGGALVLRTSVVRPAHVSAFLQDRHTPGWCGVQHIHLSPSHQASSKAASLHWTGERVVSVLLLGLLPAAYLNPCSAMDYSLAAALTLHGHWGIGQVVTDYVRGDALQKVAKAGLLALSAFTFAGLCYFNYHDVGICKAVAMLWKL
T1 sequence (D0VWV4 whole entry): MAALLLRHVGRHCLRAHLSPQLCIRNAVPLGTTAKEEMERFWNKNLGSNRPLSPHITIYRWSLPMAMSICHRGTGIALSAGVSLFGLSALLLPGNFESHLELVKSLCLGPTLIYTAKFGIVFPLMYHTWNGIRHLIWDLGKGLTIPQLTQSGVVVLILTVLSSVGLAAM
Kind of test: Inhibition of porcine heart SQR in SCR complex assessed as reduction in ubiquinol-cytochrome c reductase (complex 3) activity by measuring cytochrome c level using succinate and DCIP substrate at 23 degC by spectrophotometry. It is filed as protein-complex assay.

Test [5] deals with T1, Succinate-ubiquinone oxidoreductase. Kind of test: Non-competitive inhibition of porcine heart SQR in SCR complex with respect to DCIP substrate at 23 degC by double-reciprocal plot. It is filed as protein-complex assay.
Test [6] is filed under the species Sus scrofa. Description: Inhibition of porcine heart electron transport protein complex 3 in SCR complex at 10 uM using DBH2 and cytochrome c substrate by spectrophotometry.
For test [7], the species on record is Sus scrofa. Kind of test: Potency index, ratio of Ki for penthiopyrad to Ki for compound against porcine heart SCR.
The target of test [8] is Succinate-ubiquinone oxidoreductase (Sus scrofa) (UniProt A5GZW8+D0VWV4). Description: Potency index, ratio of Ki for penthiopyrad to Ki for compound against porcine heart SQR in SCR complex. It is filed as protein-complex assay.
Test [9] is described as follows: Inhibition of bovine heart SQR. The arrangement: species or system Bos taurus.
Test [10] in a line: Inhibition of rat liver SQR.

Experimental findings from ChEMBL document CHEMBL3414432, “Discovery of N-benzoxazol-5-yl-pyrazole-4-carboxamides as nanomolar SQR inhibitors” (Eur J Med Chem, 2015) are described below.

Where only a bound is given, the exact number is not on record here.

Regarding `Cc1ccc(CSc2nc3cc(NC(=O)c4cn(C)nc4C(F)(F)F)ccc3o2)cc1`, the IC50 (in general, the concentration that inhibits the measured activity by half) in test [1] was 269 nM. On to `Cn1cc(C(=O)Nc2ccc3oc(SCc4ccc(OC(F)(F)F)cc4)nc3c2)c(C(F)F)n1`, for which the IC50 in test [1] is 38 nM; in [2], 38 nM; in [4], 11 nM. For the same molecule, the inhibitory constant (Ki) – broadly, the dissociation constant of the complex between target and ligand, obtained from inhibition or displacement – was 43 nM in [3] and 11 nM in test [5]. For the same molecule, in [6], the inhibition (in general, the change of the read-out against control, counted positive when it falls) amounted to 13%. Moreover, the Ratio Ki in test [7] and in [8] was 30 throughout. Regarding `COc1ccc(CSc2nc3cc(NC(=O)c4cn(C)nc4C(F)(F)F)ccc3o2)cc1`, the IC50 in test [1] stood at 284 nM. Turning to `COc1[nH]c(=O)c(C(=O)[C@@H](C)C[C@H](C)[C@@H](Cl)CCl)c(O)c1OC` [ATPENIN A5], the values for the 50% inhibitory concentration (IC50) in test [9] and in [10] were 3.6 nM and 3.7 nM, respectively. As for `Cn1cc(C(=O)Nc2ccc3oc(SCc4ccc(OC(F)(F)F)cc4)nc3c2)c(C(F)(F)F)n1`, the IC50 in [1] turned out to be 88 nM. The same measure, in the same setting: then `Cn1cc(C(=O)Nc2ccc3oc(SCc4ccc(F)c(F)c4)nc3c2)c(C(F)(F)F)n1`, with 130 nM. Same read-out and setting: the figure for `Cn1cc(C(=O)Nc2ccc3oc(SCc4ccc(Cl)cc4)nc3c2)c(C(F)F)n1` is 57 nM; for `Cn1cc(C(=O)Nc2ccc3oc(SCc4ccc(F)cc4)nc3c2)c(C(F)F)n1` it is 101 nM. Same read-out and setting: then `Cn1cc(C(=O)Nc2ccc3oc(SCc4cccc(Cl)c4)nc3c2)c(C(F)(F)F)n1`, with 149 nM; and `Cn1cc(C(=O)Nc2ccc3oc(SCc4ccc(C#N)cc4)nc3c2)c(C(F)F)n1`, with 397 nM; and `COc1ccc(CSc2nc3cc(NC(=O)c4cn(C)nc4C(F)F)ccc3o2)cc1`, with 208 nM. With `Cn1cc(C(=O)Nc2ccc3oc(SCc4ccc(C(F)(F)F)cc4)nc3c2)c(C(F)(F)F)n1`, the IC50 in [1] came to 83 nM. Still for that read-out and setting: the figure for `Cn1cc(C(=O)Nc2ccc3oc(SCc4ccc(C(F)(F)F)cc4)nc3c2)c(C(F)F)n1` is 39 nM. The same measure, in the same setting: the figure for `Cn1cc(C(=O)Nc2ccc3oc(SCc4cccc(F)c4)nc3c2)c(C(F)(F)F)n1` is 418 nM. Same read-out and setting: the figure for `Cn1cc(C(=O)Nc2ccc3oc(SCc4ccc(F)cc4)nc3c2)c(C(F)(F)F)n1` is 210 nM. Take `Cn1cc(C(=O)Nc2ccc3oc(SCc4cccc(Br)c4)nc3c2)c(C(F)F)n1`: in test [1], the half-inhibitory concentration (IC50) was found to be 62 nM. Same read-out and setting: the figure for `Cn1cc(C(=O)Nc2ccc3oc(SCc4ccc(F)c(F)c4)nc3c2)c(C(F)F)n1` is 100 nM; for `Cn1cc(C(=O)Nc2ccc3oc(SCc4cccc(F)c4)nc3c2)c(C(F)F)n1` it is 244 nM. For the molecule `CC(C)CC(C)c1sccc1NC(=O)c1cn(C)nc1C(F)(F)F` (configuration not stated) [PENTHIOPYRAD], the concentration for half-maximal inhibition (IC50) in [1] came out at 1320 nM; in test [2], 1320 nM; in [4], 527 nM. Besides, the Ki in [3] is 1390 nM; in test [5], 327 nM. The same molecule had an inhibition in [6] of under 10%.

Turning to `Cn1cc(C(=O)Nc2ccc3oc(SCc4cccc(Br)c4)nc3c2)c(C(F)(F)F)n1`, the 50% inhibitory concentration (IC50) in [1] is 119 nM. `Cc1ccc(CSc2nc3cc(NC(=O)c4cn(C)nc4C(F)F)ccc3o2)cc1`: the IC50 in test [1] was determined as 216 nM. Same read-out and setting: then `Cn1cc(C(=O)Nc2ccc3oc(SCc4ccc(Cl)cc4)nc3c2)c(C(F)(F)F)n1`, with 111 nM; and `Cn1cc(C(=O)Nc2ccc3oc(SCc4cccc(Cl)c4)nc3c2)c(C(F)F)n1`, with 82 nM. On the same count and under the same terms, the figure for `Cn1cc(C(=O)Nc2ccc3oc(SCc4ccc(C#N)cc4)nc3c2)c(C(F)(F)F)n1` is 562 nM.
